According to ChEMBL document CHEMBL1201862, “PubChem BioAssay data set” (2004):
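1) Cells in 96-well plates. 2) Compound, 48 h, 5 concentrations. 3) Linear interpolation between surrounding doses. 4) Unreached endpoint = highest concentration. GI50: concentration for 50% inhibition of growth.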 The source made the active and inactive calls. Rule as the data show it: active = GI50 up to about 1.1 µM and inactive = higher.

Legend:
Assay in all cases: NCI tumour cell line growth inhibition, 48 h
[1] = tested on: M14
[2] = tested on: ACHN
[3] = tested on: CCRF-CEM
[4] = tested on: SW-620
[5] = tested on: SK-MEL-2
[6] = tested on: SNB-75
[7] = tested on: SK-OV-3
[8] = tested on: SK-MEL-28
[9] = tested on: K562
[10] = tested on: HT-29
[11] = tested on: DU-145
[12] = tested on: UO-31
[13] = tested on: RPMI-8226
[14] = tested on: HOP-62
[15] = tested on: OVCAR-4
[16] = tested on: KM12
[17] = tested on: SF-295
[18] = tested on: MDA-MB-231
[19] = tested on: A549
[20] = tested on: SF-539

Measured: GI50

CCN(CC)CCOC(=O)Cc1cccc2c(=O)cc(-c3ccccc3)oc12
inactive: [1] 41.7 µM | [2] 45.2 µM | [3] 34.4 µM | [4] 50.7 µM | [5] > 150 µM | [6] 41.7 µM | [7] 48.5 µM | [8] 54 µM | [9] 40.3 µM | [10] 44.1 µM | [11] 40.3 µM | [12] 5.79 µM | [13] 35.8 µM | [14] 46.8 µM | [15] 35.9 µM | [16] 34.8 µM | [17] 55.6 µM | [18] 26.4 µM | [19] 6.62 µM | [20] 44.1 µM

CSC1=N/C(=C\c2ccco2)C(=O)N1CN1CCOCC1
inactive: [1] > 92.3 µM | [2] 43 µM | [3] 30.4 µM | [4] 31.7 µM | [5] > 91.4 µM | [6] > 100 µM | [7] > 100 µM | [8] > 71.6 µM | [9] 42.5 µM | [10] 33.6 µM | [11] 42.3 µM | [12] > 69.8 µM | [13] 32.7 µM | [14] > 100 µM | [15] > 100 µM | [16] > 70.1 µM | [17] > 100 µM | [18] > 63.1 µM | [19] > 100 µM | [20] 17.2 µM
